Reference: patent US20060089378A1 (priority 2004, published 2006)
Read-outs that look alike come from different tables or passages of the source.

What was measured:
CB1 receptor (human) = CB1 receptor (human) (Homo sapiens, UniProt P21554); test: cell-based
Cannabinoid CB1 Receptor = target: T1, Cannabinoid CB1 Receptor (Homo sapiens, UniProt P21554); test: Binding assay for CB1 agonists or inverse agonists (radioligand competition, membranes of transfected SK-N-MC cells); settings: for inhibition at 0.2 µM: test concentration of 0.2 μM, compounds without an IC50 binding value, read-out: Cannabinoid CB1 Receptor Binding percent inhibition
T1 construct: expressed in transfected cells
T1 sequence (P21554 whole entry): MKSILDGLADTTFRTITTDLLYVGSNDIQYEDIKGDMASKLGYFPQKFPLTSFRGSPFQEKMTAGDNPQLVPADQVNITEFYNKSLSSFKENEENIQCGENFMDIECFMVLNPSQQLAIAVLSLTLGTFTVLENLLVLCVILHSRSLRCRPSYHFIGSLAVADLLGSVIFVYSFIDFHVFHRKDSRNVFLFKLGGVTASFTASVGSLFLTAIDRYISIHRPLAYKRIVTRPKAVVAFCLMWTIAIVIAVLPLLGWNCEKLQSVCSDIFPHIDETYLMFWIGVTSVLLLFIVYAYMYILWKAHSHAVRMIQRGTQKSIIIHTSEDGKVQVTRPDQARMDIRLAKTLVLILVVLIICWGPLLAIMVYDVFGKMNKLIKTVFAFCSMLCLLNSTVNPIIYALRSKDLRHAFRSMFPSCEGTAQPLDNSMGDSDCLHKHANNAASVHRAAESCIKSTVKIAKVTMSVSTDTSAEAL

Cannabinoid CB2 Receptor = target: T2, Cannabinoid CB2 Receptor (Homo sapiens, UniProt P34972); test: Binding assay for CB2 agonists or inverse agonists (radioligand competition, membranes of transfected SK-N-MC cells); settings: for Cannabinoid CB2 Receptor Binding percent inhibition / inhibition at 0.2 µM: test concentration of 0.2 μM, compounds without an IC50 binding value; for inhibition at 0.2 µM: read-out: Cannabinoid CB2 Receptor Binding percent inhibition
T2 construct: expressed in transfected cells
T2 sequence (P34972 whole entry): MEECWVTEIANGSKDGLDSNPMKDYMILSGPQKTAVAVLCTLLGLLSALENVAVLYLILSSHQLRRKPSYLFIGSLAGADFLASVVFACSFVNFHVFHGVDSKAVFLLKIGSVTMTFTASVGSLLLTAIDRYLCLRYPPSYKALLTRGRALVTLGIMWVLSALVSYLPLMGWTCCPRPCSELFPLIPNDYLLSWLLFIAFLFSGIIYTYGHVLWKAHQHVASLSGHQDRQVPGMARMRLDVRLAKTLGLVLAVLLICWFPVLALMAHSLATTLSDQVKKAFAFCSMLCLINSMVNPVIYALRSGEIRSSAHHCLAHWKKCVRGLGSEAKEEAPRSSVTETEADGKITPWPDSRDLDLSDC

[1] = human CB1, SK-N-MC cell membranes, calculated by linear regression from percent inhibition at various concentrations, read-out: Cannabinoid CB1 Receptor Binding IC50

CB1 receptor (human), sequence (P21554 whole entry): as the sequence (P21554 whole entry) above

Row | Compound | inhibition at 0.2 µM (Cannabinoid CB1 Receptor) [%] | inhibition at 0.2 µM (Cannabinoid CB2 Receptor) [%] | other results
1 | (7E)-1-(4-chloro-phenyl)-5-methanesulfonyl-7-(4-methoxy-benzylidene)-4,5,6,7-tetrahydro-1H-pyrazolo[4,3-c]pyridine-3-carboxylic acid (1-pyridin-2-yl-ethyl)-amide [Cpd 78] |  |  | EC50 (CB1 receptor (human); SK-N-MC cells expressing CRE β-gal and human CB1, forskolin, β-galactosidase activity, varying compound concentrations, read-out: CB1 Receptor Functional Inverse Agonist EC50): 3 nM; IC50 (Cannabinoid CB1 Receptor; [1]): 7 nM; Cannabinoid CB2 Receptor Binding percent inhibition (Cannabinoid CB2 Receptor): 17%
2 | CC(C)(C)OC(=O)N1C/C(=C\c2ccc(F)cc2)c2c(c(C(=O)NN3CCC(O)CC3)nn2-c2ccc(Cl)cc2Cl)C1 [Cpd 143, (7E)-1-(2,4-dichloro-phenyl)-7-(4-fluoro-benzylidene)-3-(4-hydroxy-piperidin-1-ylcarbamoyl)-1,4,6,7-tetrahydro-pyrazolo[4,3-c]pyridine-5-carboxylic acid tert-butyl ester] | 4 | 0 | 
3 | CC(=O)N1C/C(=C\c2ccc(F)cc2)c2c(c(C(=O)NN3CC4CCCC4C3)nn2-c2ccc(Cl)cc2)C1 (centres unmarked) [Cpd 86, (7E)-5-acetyl-1-(4-chloro-phenyl)-7-(4-fluoro-benzylidene)-4,5,6,7-tetrahydro-1H-pyrazolo[4,3-c]pyridine-3-carboxylic acid (hexahydro-cyclopenta[c]pyrrol-2-yl)-amide] | 46 | 24 | 
4 | COc1ccc(/C=C2\CNCc3c(C(=O)NN4CCC(O)CC4)nn(-c4ccc(Cl)cc4Cl)c32)cc1 [Cpd 142, (7E)-1-(2,4-dichloro-phenyl)-7-(4-methoxy-benzylidene)-4,5,6,7-tetrahydro-1H-pyrazolo[4,3-c]pyridine-3-carboxylic acid (4-hydroxy-piperidin-1-yl)-amide] | 10 | 0 | 
5 | COC(=O)N1C/C(=C\c2ccc(OC)cc2)c2c(c(C(=O)NN3CCC(O)CC3)nn2-c2ccc(Cl)cc2Cl)C1 [Cpd 144, (7E)-1-(2,4-dichloro-phenyl)-3-(4-hydroxy-piperidin-1-ylcarbamoyl)-7-(4-methoxy-benzylidene)-1,4,6,7-tetrahydro-pyrazolo[4,3-c]pyridine-5-carboxylic acid methyl ester] | 42 | 27 | 
6 | CC(C)(C)OC(=O)N1C/C(=C\c2ccc(F)cc2)c2c(c(C(=O)NN3CCCCC3)nn2-c2ccc(Cl)cc2)C1 [Cpd 74, (7E)-1-(4-chloro-phenyl)-7-(4-fluoro-benzylidene)-3-(piperidin-1-ylcarbamoyl)-1,4,6,7-tetrahydro-pyrazolo[4,3-c]pyridine-5-carboxylic acid tert-butyl ester] | 39 | 3 | 
7 | COc1ccc(/C=C2\CN(C(=O)OC(C)(C)C)Cc3c(C(=O)NN4CCC(O)CC4)nn(-c4ccc(Cl)cc4Cl)c32)cc1 [Cpd 141, (7E)-1-(2,4-dichloro-phenyl)-3-(4-hydroxy-piperidin-1-ylcarbamoyl)-7-(4-methoxy-benzylidene)-1,4,6,7-tetrahydro-pyrazolo[4,3-c]pyridine-5-carboxylic acid tert-butyl ester] | 6 | 9 | 
8 | CC(=O)N1C/C(=C\c2ccc(F)cc2)c2c(c(C(=O)N(C(C)=O)N3CC4CCCC4C3)nn2-c2ccc(Cl)cc2)C1 (centres unmarked) [Cpd 136, (7E)-5-acetyl-1-(4-chloro-phenyl)-7-(4-fluoro-benzylidene)-4,5,6,7-tetrahydro-1H-pyrazolo[4,3-c]pyridine-3-carboxylic acid acetyl-(hexahydro-cyclopenta[c]pyrrol-2-yl)-amide] | 39 | 22 | 
9 | CC(=O)N1C/C(=C\c2ccc(F)cc2)c2c(c(C(=O)NN3CCCCC3)nn2-c2ccc(Cl)cc2)C1 [Cpd 81, (7E)-5-acetyl-1-(4-chloro-phenyl)-7-(4-fluoro-benzylidene)-4,5,6,7-tetrahydro-1H-pyrazolo[4,3-c]pyridine-3-carboxylic acid piperidin-1-ylamide] | 10 | 22 | 
10 | O=C(NN1CCC(O)CC1)c1nn(-c2ccc(Cl)cc2Cl)c2c1CNC/C2=C\c1ccc(F)cc1 [Cpd 145, (7E)-1-(2,4-dichloro-phenyl)-7-(4-fluoro-benzylidene)-4,5,6,7-tetrahydro-1H-pyrazolo[4,3-c]pyridine-3-carboxylic acid (4-hydroxy-piperidin-1-yl)-amide] | 12 | 5 | 
11 | COC(=O)N1C/C(=C\c2ccc(F)cc2)c2c(c(C(=O)NN3CCCCC3)nn2-c2ccc(Cl)cc2)C1 [Cpd 82, (7E)-1-(4-chloro-phenyl)-7-(4-fluoro-benzylidene)-3-(piperidin-1-ylcarbamoyl)-1,4,6,7-tetrahydro-pyrazolo[4,3-c]pyridine-5-carboxylic acid methyl ester] |  |  | IC50 (Cannabinoid CB1 Receptor): 60 nM; Cannabinoid CB2 Receptor Binding percent inhibition (Cannabinoid CB2 Receptor): 32%
12 | CCNC(=O)N1CCc2c(c(C(=O)NC3C4(C)CCC(C4)C3(C)C)nn2C2CCCCC2)C1 (centres unmarked) [Cpd 129, 1-cyclohexyl-1,4,6,7-tetrahydro-pyrazolo[4,3-c]pyridine-3,5-dicarboxylic acid 5-ethylamide 3-[(1,3,3-trimethyl-bicyclo[2.2.1]hept-2-yl)-amide]] |  |  | CB1 Receptor Functional Activity (change in functional activity, CRE β-gal) (CB1 receptor (human); one compound concentration, β-galactosidase activity relative to vehicle treated cells): 36%; IC50 (Cannabinoid CB1 Receptor): 1000 nM
13 | CCOC(=O)CN1CCc2c(c(C(=O)NC3C4(C)CCC(C4)C3(C)C)nn2C2CCCCC2)C1 (centres unmarked) [Cpd 126, [1-cyclohexyl-3-(1,3,3-trimethyl-bicyclo[2.2.1]hept-2-ylcarbamoyl)-1,4,6,7-tetrahydro-pyrazolo[4,3-c]pyridin-5-yl]-acetic acid ethyl ester] |  | 49 | IC50 (Cannabinoid CB1 Receptor; [1]): 1200 nM
14 | CC(NC(=O)c1nn(-c2ccc(Cl)cc2)c2c1CN(C(=O)OC(C)(C)C)C/C2=C\c1ccc(F)cc1)c1ccccn1 (centres unmarked) [Cpd 73, (7E)-1-(4-chloro-phenyl)-7-(4-fluoro-benzylidene)-3-(1-pyridin-2-yl-ethylcarbamoyl)-1,4,6,7-tetrahydro-pyrazolo[4,3-c]pyridine-5-carboxylic acid tert-butyl ester] | 50 | 6 | 
15 | COc1ccc(/C=C2\CN(C(=O)OC(C)(C)C)Cc3c(C(=O)NN4CC5CCCC5C4)nn(-c4ccc(Cl)cc4Cl)c32)cc1 (centres unmarked) [Cpd 94, (7E)-1-(2,4-dichloro-phenyl)-3-(hexahydro-cyclopenta[c]pyrrol-2-ylcarbamoyl)-7-(4-methoxy-benzylidene)-1,4,6,7-tetrahydro-pyrazolo[4,3-c]pyridine-5-carboxylic acid tert-butyl ester] | 70 | 38 | 
16 | COc1ccc(/C=C2\CN(S(=O)(=O)N(C)C)Cc3c(C(=O)N[C@H](C)c4ccccc4)nn(-c4ccc(Cl)cc4Cl)c32)cc1 [Cpd 47] |  |  | IC50 (Cannabinoid CB1 Receptor): 2 nM; Cannabinoid CB2 Receptor Binding percent inhibition (Cannabinoid CB2 Receptor): 66%
17 | CC(C)(C)OC(=O)N1C/C(=C\c2ccc(F)cc2)c2c(c(C(=O)NN3CC4CCCC4C3)nn2-c2ccc(Cl)cc2)C1 (centres unmarked) [Cpd 84, (7E)-1-(4-chloro-phenyl)-7-(4-fluoro-benzylidene)-3-(hexahydro-cyclopenta[c]pyrrol-2-ylcarbamoyl)-1,4,6,7-tetrahydro-pyrazolo[4,3-c]pyridine-5-carboxylic acid tert-butyl ester] | 30 | 12 | 
18 | CCC(=O)N1CCc2c(c(C(=O)NC3C4(C)CCC(C4)C3(C)C)nn2Cc2ccccc2)C1 (centres unmarked) [Cpd 110, 1-benzyl-5-propionyl-4,5,6,7-tetrahydro-1H-pyrazolo[4,3-c]pyridine-3-carboxylic acid (1,3,3-trimethyl-bicyclo[2.2.1]hept-2-yl)-amide] |  |  | IC50 (Cannabinoid CB1 Receptor): 500 nM; IC50 (Cannabinoid CB2 Receptor): 20 nM
19 | C[C@@H](NC(=O)c1nn(-c2ccc(Cl)cc2Cl)c2c1CN(CC(=O)O)C/C2=C\c1ccc(F)cc1)c1ccccc1 [Cpd 52, (7E)-[1-(2,4-dichloro-phenyl)-7-(4-fluoro-benzylidene)-3-[(1R)-1-phenyl-ethylcarbamoyl]-1,4,6,7-tetrahydro-pyrazolo[4,3-c]pyridin-5-yl]-acetic acid] | 38 | 7 | 
20 | CCNC(=O)N1C/C(=C\c2ccc(F)cc2)c2c(c(C(=O)NN3CCCCC3)nn2-c2ccc(Cl)cc2)C1 [Cpd 83, (7E)-1-(4-chloro-phenyl)-7-(4-fluoro-benzylidene)-1,4,6,7-tetrahydro-pyrazolo[4,3-c]pyridine-3,5-dicarboxylic acid 5-ethylamide 3-piperidin-1-ylamide] | 32 | 19 | 
21 | CC(C)(C)OC(=O)N1C/C(=C\c2ccc(F)cc2)c2c(c(C(=O)N3CCCCC3)nn2-c2ccc(Cl)cc2Cl)C1 [Cpd 135, (7E)-1-(2,4-dichloro-phenyl)-7-(4-fluoro-benzylidene)-3-(piperidine-1-carbonyl)-1,4,6,7-tetrahydro-pyrazolo[4,3-c]pyridine-5-carboxylic acid tert-butyl ester] | 40 | 28 | 
22 | COc1ccc(/C=C2\CN(C(=O)OC(C)(C)C)Cc3c(C(=O)N4CCCCC4)nn(-c4ccc(Cl)cc4Cl)c32)cc1 [Cpd 137, (7E)-1-(2,4-dichloro-phenyl)-7-(4-methoxy-benzylidene)-3-(piperidine-1-carbonyl)-1,4,6,7-tetrahydro-pyrazolo[4,3-c]pyridine-5-carboxylic acid tert-butyl ester] | 34 | 42 | 
23 | COc1ccc(/C=C2\CN(CC(=O)O)Cc3c(C(=O)N[C@H](C)c4ccccc4)nn(-c4ccc(Cl)cc4Cl)c32)cc1 [Cpd 51, (7E)-[1-(2,4-dichloro-phenyl)-7-(4-methoxy-benzylidene)-3-[(1R)-1-phenyl-ethylcarbamoyl]-1,4,6,7-tetrahydro-pyrazolo[4,3-c]pyridin-5-yl]-acetic acid] | 49 | 19 | 
